From ChEMBL document CHEMBL1201861, “Genomics of Drug Sensitity in Cancer screening data, Wellcome Trust Sanger Institute”

How the values were obtained:
[1] = tested on: ECC4; assay: cells; format: functional, cell-based, Homo sapiens; conditions: Homo sapiens, ECC4;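 also: growth inhibition of ECC4 cells, read out with a cell viability assay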
Description: SANGER: Inhibition of human ECC4 cell growth in a cell viability assay.

[2] = tested on: EB-3; assay: cells; format: functional, cell-based, Homo sapiens; conditions: Homo sapiens, EB-3;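 also: human EB-3 cells, growth inhibition read out via a cell viability assay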
Description: SANGER: Inhibition of human EB-3 cell growth in a cell viability assay.

[3] = tested on: P31-FUJ; assay: cells; format: functional, cell-based, Homo sapiens; conditions: Homo sapiens, P31-FUJ;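 also: growth inhibition of P31-FUJ cells, read out with a viability assay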
Description: SANGER: Inhibition of human P31-FUJ cell growth in a cell viability assay.

[4] = tested on: SW1088; assay: cells; format: functional, cell-based; conditions: Homo sapiens;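 also: growth inhibition of human SW1088 cells, read out by a cell viability assay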
Description: SANGER: Inhibition of human SW1088 cell growth in a cell viability assay.

[5] = tested on: MKN-7; assay: cells; format: functional, cell-based; conditions: Homo sapiens;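 also: growth inhibition of MKN-7 cells, read out with a cell viability assay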
Description: SANGER: Inhibition of human MKN7 cell growth in a cell viability assay.

[6] = tested on: NCI-H460; assay: cells; format: functional, cell-based; conditions: Homo sapiens;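 also: cell viability assay scoring growth inhibition of human NCI-H460 cells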
Description: SANGER: Inhibition of human NCI-H460 cell growth in a cell viability assay.

[7] = tested on: BL-41; assay: cells; format: functional, cell-based; conditions: Homo sapiens;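 also: growth inhibition of human BL-41 cells, read out with a cell viability assay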
Description: SANGER: Inhibition of human BL-41 cell growth in a cell viability assay.

[8] = tested on: RPMI 8402; assay: SANGER: Inhibition of human RPMI-8402 cell growth in a cell viability assay.; format: functional, cell-based; conditions: Homo sapiens, RPMI 8402
[9] = tested on: A2058; assay: cells; format: functional, cell-based; conditions: Homo sapiens;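 also: reduction of A2058 cell growth, read out with a viability assay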
Description: SANGER: Inhibition of human A2058 cell growth in a cell viability assay.

[10] = tested on: SW756; assay: cells; format: functional, cell-based; conditions: Homo sapiens;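 also: growth inhibition of human SW756 cells, read out with a cell viability assay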
Description: SANGER: Inhibition of human SW756 cell growth in a cell viability assay.

[11] = tested on: LB647-SCLC; assay: cells; format: functional, cell-based, Homo sapiens; conditions: Homo sapiens, LB647-SCLC;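 also: cell growth inhibition, read out by a viability assay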
Description: SANGER: Inhibition of human LB647-SCLC cell growth in a cell viability assay.

[12] = tested on: KYSE-270; assay: cells; format: functional, cell-based; conditions: Homo sapiens;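 also: cell growth inhibition measured with a viability assay in the human KYSE-270 line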
Description: SANGER: Inhibition of human KYSE-270 cell growth in a cell viability assay.

[13] = tested on: RMG-I; assay: cells; format: functional, cell-based; conditions: Homo sapiens;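 also: growth inhibition of human RMG-I cells, read out with a cell viability assay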
Description: SANGER: Inhibition of human RMG-I cell growth in a cell viability assay.

[14] = tested on: RVH-421; assay: cells; format: functional, cell-based; conditions: Homo sapiens
Description: SANGER: Inhibition of human RVH-421 cell growth in a cell viability assay.

[15] = tested on: MDA-MB-453; assay: cells; format: functional, cell-based; conditions: Homo sapiens
Description: SANGER: Inhibition of human MDA-MB-453 cell growth in a cell viability assay.

[16] = tested on: HPAF-II; assay: cells; format: functional, cell-based; conditions: Homo sapiens;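 also: growth inhibition of HPAF-II cells, read out with a cell viability assay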
Description: SANGER: Inhibition of human HPAF-II cell growth in a cell viability assay.

[17] = tested on: SCLC-21H; assay: cells; format: functional, cell-based, Homo sapiens; conditions: Homo sapiens, SCLC-21H;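 also: growth inhibition of cultured human SCLC-21H cells, read out with a cell viability assay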
Description: SANGER: Inhibition of human SCLC-21H cell growth in a cell viability assay.

[18] = tested on: G-401; assay: cells; format: functional, cell-based; conditions: Homo sapiens
Description: SANGER: Inhibition of human G-401 cell growth in a cell viability assay.

[19] = tested on: BL-70; assay: SANGER: Inhibition of human BL-70 cell growth in a cell viability assay.; format: functional, cell-based; conditions: Homo sapiens, BL-70
[20] = tested on: NCI-H522; assay: cells; format: functional, cell-based; conditions: Homo sapiens;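 also: cell viability assay measuring growth inhibition of human NCI-H522 cells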
Description: SANGER: Inhibition of human NCI-H522 cell growth in a cell viability assay.

[21] = tested on: Ca-Ski; assay: cells; format: functional, cell-based; conditions: Homo sapiens;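 also: cell viability assay measuring inhibition of Ca-Ski cell growth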
Description: SANGER: Inhibition of human Ca-Ski cell growth in a cell viability assay.

[22] = tested on: RL; assay: cells; format: functional, cell-based, Homo sapiens; conditions: Homo sapiens, RL
Description: SANGER: Inhibition of human RL cell growth in a cell viability assay.

[23] = tested on: KARPAS-422; assay: cells; format: functional, cell-based, Homo sapiens; conditions: Homo sapiens, KARPAS-422
Description: SANGER: Inhibition of human KARPAS-422 cell growth in a cell viability assay.

[24] = tested on: GMS-10; assay: cells; format: functional, cell-based; conditions: Homo sapiens;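 also: growth inhibition of GMS-10 cells, read out as cell viability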
Description: SANGER: Inhibition of human GMS-10 cell growth in a cell viability assay.

[25] = tested on: BCPAP; assay: cells; format: functional, cell-based; conditions: Homo sapiens;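 also: growth inhibition of BCPAP cells, read out in a cell viability assay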
Description: SANGER: Inhibition of human BCPAP cell growth in a cell viability assay.

[26] = tested on: KYSE-150 cell line; assay: cells; format: functional, cell-based; conditions: Homo sapiens;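 also: growth inhibition of human KYSE-150 cells, read out with a cell viability assay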
Description: SANGER: Inhibition of human KYSE-150 cell growth in a cell viability assay.

[27] = tested on: RL95-2; assay: cells; format: functional, cell-based, Homo sapiens; conditions: Homo sapiens, RL95-2;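 also: RL95-2 growth inhibition determined through a cell viability readout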
Description: SANGER: Inhibition of human RL95-2 cell growth in a cell viability assay.

[28] = tested on: SNU-449; assay: cells; format: functional, cell-based; conditions: Homo sapiens
Description: SANGER: Inhibition of human SNU-449 cell growth in a cell viability assay.

[29] = tested on: A 172; assay: cells; format: functional, cell-based; conditions: Homo sapiens;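 also: growth inhibition of A172 cells, measured with a cell viability readout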
Description: SANGER: Inhibition of human A172 cell growth in a cell viability assay.

[30] = tested on: K052; assay: cells; format: functional, cell-based, Homo sapiens; conditions: Homo sapiens, K052;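 also: Read-out from a cell viability assay, IC50 reflecting suppression of K052 cell growth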
Description: SANGER: Inhibition of human K052 cell growth in a cell viability assay.

[31] = tested on: NCI-H2405; assay: cells; format: functional, cell-based; conditions: Homo sapiens;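 also: growth inhibition of the human cell line, read out with a cell viability assay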
Description: SANGER: Inhibition of human NCI-H2405 cell growth in a cell viability assay.

[32] = tested on: COLO-741; assay: cells; format: functional, cell-based; conditions: Homo sapiens
Description: SANGER: Inhibition of human COLO-741 cell growth in a cell viability assay.

[33] = tested on: NCI-H2196; assay: cells; format: functional, cell-based, Homo sapiens; conditions: Homo sapiens, NCI-H2196; read-out: IC50;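 also: cell viability assay used as the readout of growth inhibition in NCI-H2196 cells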
Description: SANGER: Inhibition of human NCI-H2196 cell growth in a cell viability assay.

[34] = tested on: KYSE-140; assay: cells; format: functional, cell-based; conditions: Homo sapiens;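 also: cell viability assay measuring growth inhibition in human KYSE-140 cells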
Description: SANGER: Inhibition of human KYSE-140 cell growth in a cell viability assay.

[35] = tested on: 639-V; assay: cells; format: functional, cell-based; conditions: Homo sapiens;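 also: growth inhibition of 639-V cells, read out with a cell viability assay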
Description: SANGER: Inhibition of human 639-V cell growth in a cell viability assay.

[36] = tested on: PF-382; assay: cells; format: functional, cell-based, Homo sapiens; conditions: Homo sapiens, PF-382
Description: SANGER: Inhibition of human PF-382 cell growth in a cell viability assay.

[37] = tested on: HCC1806; assay: cells; format: functional, cell-based; conditions: Homo sapiens;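 also: growth inhibition of the cancer cell line, determined with a cell viability assay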
Description: SANGER: Inhibition of human HCC1806 cell growth in a cell viability assay.

[38] = tested on: SW948; assay: cells; format: functional, cell-based; conditions: Homo sapiens;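 also: growth inhibition of SW948 cells, read out with a cell viability assay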
Description: SANGER: Inhibition of human SW948 cell growth in a cell viability assay.

[39] = tested on: IGROV-1; assay: cells; format: functional, cell-based; conditions: Homo sapiens;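 also: reduction of IGROV-1 cell growth, read out with a viability assay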
Description: SANGER: Inhibition of human IGROV-1 cell growth in a cell viability assay.

[40] = tested on: OVCAR-8; assay: cells; format: functional, cell-based; conditions: Homo sapiens;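 also: growth inhibition of human OVCAR-8 cells, read out by a cell viability assay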
Description: SANGER: Inhibition of human OVCAR-8 cell growth in a cell viability assay.

[41] = tested on: LU-99A; assay: cells; format: functional, cell-based; conditions: Homo sapiens;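 also: growth inhibition of LU-99A cells, read out with a cell viability assay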
Description: SANGER: Inhibition of human LU-99A cell growth in a cell viability assay.

[42] = tested on: NCI-H810; assay: cells; format: functional, cell-based; conditions: Homo sapiens;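 also: IC50 reflects inhibition of cancer cell line growth, read out with a cell viability assay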
Description: SANGER: Inhibition of human NCI-H810 cell growth in a cell viability assay.

[43] = tested on: NB12; assay: cells; format: functional, cell-based; conditions: Homo sapiens;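 also: growth inhibition of human NB12 cells, read out by a cell viability assay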
Description: SANGER: Inhibition of human NB12 cell growth in a cell viability assay.

[44] = tested on: SBC-5; assay: cells; format: functional, cell-based; conditions: Homo sapiens;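 also: cell viability assay read-out, IC50 is the concentration that inhibits growth of the cells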
Description: SANGER: Inhibition of human SBC-5 cell growth in a cell viability assay.

[45] = tested on: ME-180; assay: cells; format: functional, cell-based; conditions: Homo sapiens;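 also: cell viability assay measuring growth inhibition of ME-180 cells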
Description: SANGER: Inhibition of human ME-180 cell growth in a cell viability assay.

[46] = tested on: RO82-W-1; assay: cells; format: functional, cell-based; conditions: Homo sapiens;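 also: growth inhibition of human RO82-W-1 cells, measured with a cell viability assay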
Description: SANGER: Inhibition of human RO82-W-1 cell growth in a cell viability assay.

[47] = tested on: SCC-4; assay: cells; format: functional, cell-based; conditions: Homo sapiens;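 also: growth inhibition of human SCC-4 cells, read out as cell viability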
Description: SANGER: Inhibition of human SCC-4 cell growth in a cell viability assay.

[48] = tested on: KYSE-510; assay: cells; format: functional, cell-based; conditions: Homo sapiens;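 also: cell viability readout used to measure how strongly growth of the cell line is suppressed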
Description: SANGER: Inhibition of human KYSE-510 cell growth in a cell viability assay.

[49] = tested on: WSU-NHL; assay: cells; format: functional, cell-based, Homo sapiens; conditions: Homo sapiens, WSU-NHL;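 also: growth inhibition of human WSU-NHL cells, read out with a cell viability assay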
Description: SANGER: Inhibition of human WSU-NHL cell growth in a cell viability assay.

[50] = tested on: MFH-ino; assay: cells; format: functional, cell-based, Homo sapiens; conditions: Homo sapiens, MFH-ino;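 also: growth inhibition of human MFH-ino cells, read out by a cell viability assay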
Description: SANGER: Inhibition of human MFH-ino cell growth in a cell viability assay.

[51] = tested on: HSC-4; assay: cells; format: functional, cell-based; conditions: Homo sapiens;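 also: growth inhibition of human HSC-4 cells, read out with a cell viability assay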
Description: SANGER: Inhibition of human HSC-4 cell growth in a cell viability assay.

[52] = tested on: ARH-77; assay: cells; format: functional, cell-based, Homo sapiens; conditions: Homo sapiens, ARH-77;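 also: growth inhibition of ARH-77 cells, read out by a cell viability assay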
Description: SANGER: Inhibition of human ARH-77 cell growth in a cell viability assay.

[53] = tested on: HT-3; assay: cells; format: functional, cell-based; conditions: Homo sapiens;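 also: growth inhibition measured with a cell viability readout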
Description: SANGER: Inhibition of human HT-3 cell growth in a cell viability assay.

[54] = tested on: LC4-1; assay: cells; format: functional, cell-based, Homo sapiens; conditions: Homo sapiens, LC4-1;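 also: growth inhibition of LC4-1 cells, read out with a cell viability assay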
Description: SANGER: Inhibition of human LC4-1 cell growth in a cell viability assay.

[55] = tested on: NCI-H2347; assay: cells; format: functional, cell-based; conditions: Homo sapiens;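 also: growth inhibition of the cell line, read out with a cell viability assay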
Description: SANGER: Inhibition of human NCI-H2347 cell growth in a cell viability assay.

[56] = tested on: COLO-680N; assay: cells; format: functional, cell-based; conditions: Homo sapiens;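 also: cell viability assay used to measure inhibition of COLO-680N cell growth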
Description: SANGER: Inhibition of human COLO-680N cell growth in a cell viability assay.

[57] = tested on: NCI-H510A; assay: cells; format: functional, cell-based, Homo sapiens; conditions: Homo sapiens, NCI-H510A;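 also: growth inhibition of NCI-H510A cells, read out with a cell viability assay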
Description: SANGER: Inhibition of human NCI-H510A cell growth in a cell viability assay.

Structure (SMILES): Cc1ccc(C(=O)Nc2ccc(CN3CCN(C)CC3)c(C(F)(F)F)c2)cc1C#Cc1cnc2cccnn12 [PONATINIB]
- IC50 [1]: > 512 nM
- IC50 [2]: > 512 nM
- IC50 [3]: > 512 nM
- IC50 [4]: 444 nM
- IC50 [5]: > 512 nM
- IC50 [6]: > 512 nM
- IC50 [7]: > 512 nM
- IC50 [8]: > 512 nM
- IC50 [9]: > 512 nM
- IC50 [10]: > 512 nM
- IC50 [11]: > 512 nM
- IC50 [12]: > 512 nM
- IC50 [13]: > 512 nM
- IC50 [14]: > 512 nM
- IC50 [15]: > 512 nM
- IC50 [16]: > 512 nM
- IC50 [17]: > 512 nM
- IC50 [18]: > 512 nM
- IC50 [19]: 22 nM
- IC50 [20]: 453 nM
- IC50 [21]: > 512 nM
- IC50 [22]: > 512 nM
- IC50 [23]: > 512 nM
- IC50 [24]: > 512 nM
- IC50 [25]: 360 nM
- IC50 [26]: 424 nM
- IC50 [27]: > 512 nM
- IC50 [28]: 300 nM
- IC50 [29]: 296 nM
- IC50 [30]: > 512 nM
- IC50 [31]: > 512 nM
- IC50 [32]: > 512 nM
- IC50 [33]: > 512 nM
- IC50 [34]: > 512 nM
- IC50 [35]: > 512 nM
- IC50 [36]: 209 nM
- IC50 [37]: > 512 nM
- IC50 [38]: > 512 nM
- IC50 [39]: > 512 nM
- IC50 [40]: > 512 nM
- IC50 [41]: > 512 nM
- IC50 [42]: > 512 nM
- IC50 [43]: > 512 nM
- IC50 [44]: > 512 nM
- IC50 [45]: > 512 nM
- IC50 [46]: > 512 nM
- IC50 [47]: > 512 nM
- IC50 [48]: > 512 nM
- IC50 [49]: > 512 nM
- IC50 [50]: > 512 nM
- IC50 [51]: > 512 nM
- IC50 [52]: > 512 nM
- IC50 [53]: > 512 nM
- IC50 [54]: > 512 nM
- IC50 [55]: > 512 nM
- IC50 [56]: > 512 nM
- IC50 [57]: > 512 nM

Structure (SMILES): COC(=O)[C@H](CCSC)NC(=O)c1ccc(NC[C@@H](N)CS)cc1-c1ccccc1
- IC50 [1]: > 1020 nM
- IC50 [2]: > 1020 nM
- IC50 [3]: > 1020 nM
- IC50 [4]: > 1020 nM
- IC50 [5]: > 1020 nM
- IC50 [6]: > 1020 nM
- IC50 [7]: > 1020 nM
- IC50 [8]: > 1020 nM
- IC50 [9]: > 1020 nM
- IC50 [10]: > 1020 nM
- IC50 [11]: > 1020 nM
- IC50 [12]: > 1020 nM
- IC50 [13]: > 1020 nM
- IC50 [14]: > 1020 nM
- IC50 [15]: > 1020 nM
- IC50 [16]: > 1020 nM
- IC50 [17]: > 1020 nM
- IC50 [18]: > 1020 nM
- IC50 [19]: > 1020 nM
- IC50 [20]: > 1020 nM
- IC50 [21]: > 1020 nM
- IC50 [22]: > 1020 nM
- IC50 [23]: > 1020 nM
- IC50 [24]: > 1020 nM
- IC50 [25]: > 1020 nM
- IC50 [26]: > 1020 nM
- IC50 [27]: > 1020 nM
- IC50 [28]: > 1020 nM
- IC50 [29]: > 1020 nM
- IC50 [30]: > 1020 nM
- IC50 [31]: > 1020 nM
- IC50 [32]: > 1020 nM
- IC50 [33]: > 1020 nM
- IC50 [34]: > 1020 nM
- IC50 [35]: > 1020 nM
- IC50 [36]: > 1020 nM
- IC50 [37]: > 1020 nM
- IC50 [38]: > 1020 nM
- IC50 [39]: > 1020 nM
- IC50 [40]: > 1020 nM
- IC50 [41]: > 1020 nM
- IC50 [42]: > 1020 nM
- IC50 [43]: > 1020 nM
- IC50 [44]: > 1020 nM
- IC50 [45]: > 1020 nM
- IC50 [46]: > 1020 nM
- IC50 [47]: > 1020 nM
- IC50 [48]: > 1020 nM
- IC50 [49]: > 1020 nM
- IC50 [50]: > 1020 nM
- IC50 [51]: > 1020 nM
- IC50 [52]: > 1020 nM
- IC50 [53]: > 1020 nM
- IC50 [54]: > 1020 nM
- IC50 [55]: > 1020 nM
- IC50 [56]: > 1020 nM
- IC50 [57]: > 1020 nM
